Data on 14 molecules can be found in ChEMBL document CHEMBL1201862, “PubChem BioAssay data set” (2004).

Common to all, as to test: inhibition of tumour cell growth, NCI panel, 48 h
The test system of test [1] is 786-0.
Test [2] deals with CAKI-1.
Test [3] concerns CCRF-CEM.
The subject of test [4] is DMS-114.
Test [5] relates to HCC 2998.
Test [6] deals with HCT-15.
Test [7] deals with HOP-62.
Test [8] relates to HT-29.
Test [9] has as its system M14.
Test [10] concerns NCI-H460.
Test [11] has as its system SF-295.
Test [12] deals with SF-539.
Test [13] has as its system SK-MEL-2.
The subject of test [14] is SNB-19.
The test system of test [15] is UACC-257.
In test [16] the test system is K562.

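Exposure lasted 48 hours, with cells grown in 96-well plates and compounds tested at five concentrations. GI50 marks 50% less growth.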 Calls of active or inactive are those of the source. Rule as the data show it: active = GI50 up to about 1.1 µM and inactive = higher. A value given as a limit tells only on which side of the number the result lay.

As for `Nc1ccc(C(=O)NN2C(=O)C(Cl)C2c2ccccc2Cl)cc1` (configuration not stated), the GI50 in [1] was 1.69 µM (inactive); in test [2], 13.9 µM (inactive); in [3], 1.81 µM (inactive); in test [4], 5.48 µM (inactive); in test [5], 16.5 µM (inactive); in test [6], 3.01 µM. Moreover, the GI50 in test [7] was 20.3 µM (inactive); in [8], 10.3 µM (inactive); in test [9], 13.1 µM (inactive); in [10], 4.45 µM (inactive); in test [11], 2.95 µM (inactive); in test [12], 7.93 µM (inactive). Further, the GI50 in test [13] is 11.3 µM (inactive); in [14], 16.9 µM (inactive); in [15], 13.6 µM (inactive).
With `N#Cc1cn(-c2c3ccccc3nc3ccccc23)c(=O)[nH]c1=O`, the GI50 in test [1] is 3.29 µM (inactive); in test [2] it was 5.75 µM (inactive); in test [3], 7.29 µM (inactive); in test [4], 8 µM (inactive); in test [6], 5.96 µM; in test [8], 4.27 µM (inactive). Also, the GI50 in [16] is 3.67 µM (inactive); in [9], 11.6 µM (inactive); in [10], 3.55 µM (inactive); in test [11] it was 5.83 µM (inactive); in test [12], 2.51 µM (inactive); in test [13], 10.8 µM (inactive). The values for the GI50 in [14] and in test [15] were 22.2 µM (inactive) and 4.86 µM (inactive), respectively.
For `Cc1ccc(-c2nnc(-c3nn(-c4ccccc4)c4nc5ccccc5nc34)o2)cc1`, the GI50 was 9.93 µM (inactive) in test [1]; 11.7 µM (inactive) in test [2]; 3.59 µM (inactive) in test [3]; 15.8 µM (inactive) in test [4]; 21.4 µM in test [6]; 13.5 µM (inactive) in test [7]. Besides, the GI50 in [8] is 41.7 µM (inactive); in [16] it was 11.4 µM (inactive); in test [9], 25.8 µM (inactive); in test [10], 9.04 µM (inactive); in [11], 15.6 µM (inactive); in [12] it was 3.03 µM (inactive). The GI50 in [13] was 16 µM (inactive); in test [14], 21.5 µM (inactive); in [15], 35.9 µM (inactive).
`CCOc1cccc2ccc[n+](CC)c12`: the GI50 was > 100 µM (inactive) in test [1]; 55.8 µM (inactive) in [3]; 32.7 µM (inactive) in test [4]; > 100 µM (inactive) in test [5]; > 100 µM (inactive) in test [7]; 47.3 µM (inactive) in test [8]. Also, the GI50 in [16] was 25.1 µM (inactive); in test [9] it was > 100 µM (inactive); in test [10], 75.7 µM (inactive); in test [11], 45.7 µM (inactive); in test [12], > 100 µM (inactive); in test [14], > 100 µM (inactive). Also, the GI50 in [15] is 57.9 µM (inactive).
Turning to `CC1(C)CC(=O)C/C(=N/c2ccc([N+](=O)[O-])cc2)C1`, the GI50 in test [1] is > 100 µM (inactive); in [3] it was 20.4 µM (inactive); in [4] it was 41.4 µM (inactive); in [5] it was > 100 µM (inactive); in test [6] it was 64.3 µM; in test [7] it was > 100 µM (inactive). Moreover, the GI50 in [8] is 87.3 µM (inactive); in [16], 35.6 µM (inactive); in test [9], > 100 µM (inactive); in test [10] it was > 100 µM (inactive); in [11] it was > 100 µM (inactive); in test [13], > 100 µM (inactive). Moreover, the GI50 in test [15] was > 100 µM (inactive).
As for `O=C1N(c2ccccc2)C(=O)C2(SC=NN2Cc2ccccc2)N1c1ccccc1` (configuration not stated), the GI50 in test [1], in [2], in test [3], in test [4], in test [5] and in test [7] was > 100 µM (inactive) each time. Further, the GI50 in test [8], in test [16], in test [9], in [10], in test [11] and in test [12] was > 100 µM (inactive) each time. For the same molecule, the GI50 in [14] and in [15] was > 100 µM (inactive) in each case.
As for `Cc1cc2c(=O)cc(-c3ccc(F)cc3)oc2c(C(=O)O)c1C`, the GI50 in test [1] is > 100 µM (inactive); in test [2], > 100 µM (inactive); in test [3], > 100 µM (inactive); in test [4], > 100 µM (inactive); in test [6], > 100 µM; in [8], > 100 µM (inactive). The GI50 in test [16], in test [9], in test [10], in test [11], in test [12] and in test [13] was > 100 µM (inactive) in each case. Further, the GI50 in [14] and in test [15] was > 100 µM (inactive) throughout.
`CC(=O)c1cccc(NCn2nnc3ccccc32)c1`: the GI50 in [1] was > 100 µM (inactive); in test [3] it was > 100 µM (inactive); in test [4], > 100 µM (inactive); in test [5] it was > 100 µM (inactive); in [6], > 100 µM; in test [7], > 100 µM (inactive). The GI50 in test [8], in test [16], in [9], in [10], in test [11] and in [12] was > 100 µM (inactive) in each case. The GI50 in [13], in test [14] and in test [15] was > 100 µM (inactive) in each case.
In the case of `COc1cc(/C=C2\NC(=O)C(Cc3cc(OC)c(OC)c(C)c3OC)N(C(C)=O)C2=O)c(OC)c(C)c1OC` (configuration not stated), the GI50 in test [1] was > 100 µM (inactive); in test [2] it was 54.8 µM (inactive); in test [3] it was 45.2 µM (inactive); in [4], 60.5 µM (inactive); in test [5], > 100 µM (inactive); in test [7] it was > 100 µM (inactive). The GI50 was > 100 µM (inactive) in test [8]; 61.2 µM (inactive) in test [16]; > 100 µM (inactive) in test [9]; 43.4 µM (inactive) in test [10]; > 100 µM (inactive) in [11]; > 100 µM (inactive) in test [12]. The GI50 in [13] was 96.4 µM (inactive); in [14], > 100 µM (inactive); in test [15], > 100 µM (inactive).
With `CC1(C)OC(=S)N(c2ccccc2)C12C=Cc1cc3ccccc3nc1S2` (configuration not stated), the GI50 was > 100 µM (inactive) in test [1]; 29.9 µM (inactive) in [3]; > 100 µM (inactive) in [4]; > 100 µM (inactive) in [5]; > 100 µM in test [6]; > 100 µM (inactive) in test [7]. Also, the GI50 in [8] is 40.4 µM (inactive); in test [16] it was 33.4 µM (inactive); in test [9], > 100 µM (inactive); in test [10], 84.9 µM (inactive); in [12], > 100 µM (inactive); in [13], > 100 µM (inactive). For the same molecule, the GI50 in [14] and in [15] was > 100 µM (inactive) in each case.
`CC#C[I+]c1ccccc1`: the GI50 in [1] is 14.6 µM (inactive); in test [2], 14.1 µM (inactive); in test [3], 4.17 µM (inactive); in test [4], 13.2 µM (inactive); in test [5], 20 µM (inactive); in test [7] it was 35.3 µM (inactive). Moreover, the GI50 in [8] is 17.3 µM (inactive); in test [16], 15.8 µM (inactive); in [9], 17.3 µM (inactive); in [10], 35.5 µM (inactive); in test [11] it was 69.3 µM (inactive); in test [12], 18.2 µM (inactive). For the same molecule, the GI50 in [13] is 28.1 µM (inactive); in test [14], 64.6 µM (inactive); in [15] it was 20.9 µM (inactive).
Regarding `COc1cc2c(oc(=O)c3c4occc4cc(OC)c23)c2cccc(O)c12`, the GI50 in [1] was > 100 µM (inactive); in test [2] it was > 100 µM (inactive); in test [3], > 100 µM (inactive); in [4] it was > 100 µM (inactive); in test [5] it was > 100 µM (inactive); in [6], > 100 µM. Also, the GI50 in test [7], in test [8], in test [16], in [9], in test [10] and in test [11] was > 100 µM (inactive) in each case. Also, the GI50 in test [12], in [14] and in test [15] was > 100 µM (inactive) in each case.
Take `CNS(=O)(=O)NN(C)S(=O)(=O)c1ccc(OC)cc1`: the GI50 in [1] is > 100 µM (inactive); in [2], > 100 µM (inactive); in test [3], > 100 µM (inactive); in test [4], > 100 µM (inactive); in test [5], > 100 µM (inactive); in [6] it was > 100 µM. Besides, the GI50 in [7], in test [8], in [16], in test [9], in [11] and in test [12] was > 100 µM (inactive) throughout. Moreover, the GI50 in test [13], in test [14] and in test [15] was > 100 µM (inactive) throughout.
Regarding `BrC1=CC=C2NC=CC3=CC=NC1C32` (configuration not stated), the GI50 in test [1] was 8.34 µM (inactive); in test [3], 6.22 µM (inactive); in test [4] it was 14 µM (inactive); in [5], 35.1 µM (inactive); in [6], 18.9 µM; in [7], 25.5 µM (inactive). Moreover, the GI50 was 14.9 µM (inactive) in [8]; 12.2 µM (inactive) in test [16]; 18 µM (inactive) in [9]; 2.75 µM (inactive) in test [10]; 8.36 µM (inactive) in [11]; 12.6 µM (inactive) in test [12]. Besides, the GI50 in test [13] was 18.9 µM (inactive); in [14], 8.51 µM (inactive); in test [15], 33.5 µM (inactive).
